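Growth conditions: 96-well plates. Treatment: test compound, 48 hours, 5 concentrations. Analysis: linear interpolation between bracketing concentrations; unreached endpoints set to highest concentration. TGI: total growth inhibition.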
Legend:
Assay in all cases: growth of human tumour cells (NCI), 48 h
U251 CNS = tested on: U251 CNS
SR leukemia = tested on: SR leukemia
RXF 393 renal = tested on: RXF 393 renal
KM12 colon = tested on: KM12 colon
SW-620 colon = tested on: SW-620 colon
UO-31 renal = tested on: UO-31 renal
MALME-3M melanoma = tested on: MALME-3M melanoma
MOLT-4 leukemia = tested on: MOLT-4 leukemia
UACC-62 melanoma = tested on: UACC-62 melanoma
BT-549 breast = tested on: BT-549 breast
OVCAR-5 ovarian = tested on: OVCAR-5 ovarian
SF-268 CNS = tested on: SF-268 CNS
SK-MEL-28 melanoma = tested on: SK-MEL-28 melanoma
IGROV1 ovarian = tested on: IGROV1 ovarian
SK-OV-3 ovarian = tested on: SK-OV-3 ovarian
HCT-15 colon = tested on: HCT-15 colon
PC-3 prostate = tested on: PC-3 prostate
A549 NSCLC = tested on: A549 NSCLC
LOX IMVI melanoma = tested on: LOX IMVI melanoma
HOP-62 NSCLC = tested on: HOP-62 NSCLC
NCI-H23 lung = tested on: NCI-H23 lung
ACHN renal = tested on: ACHN renal
MDA-MB-231 breast = tested on: MDA-MB-231 breast
MDA-N = tested on: MDA-N
OVCAR-4 ovarian = tested on: OVCAR-4 ovarian
RPMI-8226 leukemia = tested on: RPMI-8226 leukemia
SK-MEL-5 melanoma = tested on: SK-MEL-5 melanoma
NCI/ADR-RES ovarian = tested on: NCI/ADR-RES ovarian
HS 578T breast = tested on: HS 578T breast
HOP-92 NSCLC = tested on: HOP-92 NSCLC
SF-295 CNS = tested on: SF-295 CNS
OVCAR-3 ovarian = tested on: OVCAR-3 ovarian
CCRF-CEM leukemia = tested on: CCRF-CEM leukemia
T-47D breast = tested on: T-47D breast
SNB-75 CNS = tested on: SNB-75 CNS
TK-10 renal = tested on: TK-10 renal
NCI-H522 lung = tested on: NCI-H522 lung
NCI-H460 lung = tested on: NCI-H460 lung
SNB-19 CNS = tested on: SNB-19 CNS
HCC-2998 colon = tested on: HCC-2998 colon
HCT-116 colon = tested on: HCT-116 colon
SN12C renal = tested on: SN12C renal
MDA-MB-435 = tested on: MDA-MB-435
K-562 leukemia = tested on: K-562 leukemia
786-0 renal = tested on: 786-0 renal
SK-MEL-2 melanoma = tested on: SK-MEL-2 melanoma
MCF7 breast = tested on: MCF7 breast
COLO 205 colon = tested on: COLO 205 colon
A498 renal = tested on: A498 renal
M14 melanoma = tested on: M14 melanoma
EKVX NSCLC = tested on: EKVX NSCLC
UACC-257 melanoma = tested on: UACC-257 melanoma
DU-145 prostate = tested on: DU-145 prostate
OVCAR-8 ovarian = tested on: OVCAR-8 ovarian
CAKI-1 renal = tested on: CAKI-1 renal
SF-539 CNS = tested on: SF-539 CNS
HT29 colon = tested on: HT29 colon
HL-60(TB) leukemia = tested on: HL-60(TB) leukemia
NCI-H226 lung = tested on: NCI-H226 lung

CCCCCCCC/C=C(\Br)C(O)C(Br)Br (stereo not drawn)
TGI (U251 CNS): > 100 µM | TGI (SR leukemia): > 100 µM | TGI (RXF 393 renal): 37.8 µM | TGI (KM12 colon): 59.6 µM | TGI (SW-620 colon): 34.2 µM | TGI (UO-31 renal): 38.8 µM | TGI (MALME-3M melanoma): 43 µM | TGI (MOLT-4 leukemia): > 100 µM | TGI (UACC-62 melanoma): 41.6 µM | TGI (BT-549 breast): 44.8 µM | TGI (OVCAR-5 ovarian): 43.6 µM | TGI (SF-268 CNS): 53.1 µM | TGI (SK-MEL-28 melanoma): > 100 µM | TGI (IGROV1 ovarian): 59.1 µM | TGI (SK-OV-3 ovarian): 90.6 µM | TGI (HCT-15 colon): 47.2 µM | TGI (PC-3 prostate): > 100 µM | TGI (A549 NSCLC): > 100 µM | TGI (LOX IMVI melanoma): 41.2 µM | TGI (HOP-62 NSCLC): 47.6 µM | TGI (NCI-H23 lung): 47.7 µM | TGI (ACHN renal): 51.9 µM | TGI (MDA-MB-231 breast): > 100 µM | TGI (MDA-N): 54.1 µM | TGI (OVCAR-4 ovarian): 85.9 µM | TGI (RPMI-8226 leukemia): > 100 µM | TGI (SK-MEL-5 melanoma): 34 µM | TGI (NCI/ADR-RES ovarian): 57.2 µM | TGI (HS 578T breast): 74.7 µM | TGI (HOP-92 NSCLC): 42.9 µM | TGI (SF-295 CNS): 41.5 µM | TGI (OVCAR-3 ovarian): 34.8 µM | TGI (CCRF-CEM leukemia): 35.5 µM | TGI (T-47D breast): > 100 µM | TGI (SNB-75 CNS): > 100 µM | TGI (TK-10 renal): > 100 µM | TGI (NCI-H522 lung): 38.4 µM | TGI (NCI-H460 lung): 86.8 µM | TGI (SNB-19 CNS): > 100 µM | TGI (HCC-2998 colon): 48 µM | TGI (HCT-116 colon): > 100 µM | TGI (SN12C renal): 36.6 µM | TGI (MDA-MB-435): 59.1 µM | TGI (K-562 leukemia): > 100 µM | TGI (786-0 renal): 39.7 µM | TGI (SK-MEL-2 melanoma): 63.7 µM | TGI (MCF7 breast): 98.3 µM | TGI (COLO 205 colon): 41 µM | TGI (A498 renal): 68.1 µM | TGI (M14 melanoma): 48.5 µM | TGI (EKVX NSCLC): 92.9 µM | TGI (UACC-257 melanoma): 76.1 µM | TGI (DU-145 prostate): > 100 µM | TGI (OVCAR-8 ovarian): 49.5 µM | TGI (CAKI-1 renal): 63.7 µM

COC(=O)C1(Cc2ccccc2)Cc2cc3c(cc2C1)CCC3
TGI (U251 CNS): 64.9 µM | TGI (SR leukemia): 31.3 µM | TGI (RXF 393 renal): 50.7 µM | TGI (KM12 colon): 76.4 µM | TGI (SF-539 CNS): > 100 µM | TGI (SW-620 colon): > 100 µM | TGI (UO-31 renal): > 100 µM | TGI (MALME-3M melanoma): 52.6 µM | TGI (MOLT-4 leukemia): 35 µM | TGI (UACC-62 melanoma): > 100 µM | TGI (BT-549 breast): > 100 µM | TGI (OVCAR-5 ovarian): 82.6 µM | TGI (SF-268 CNS): > 100 µM | TGI (SK-MEL-28 melanoma): > 100 µM | TGI (IGROV1 ovarian): > 100 µM | TGI (HT29 colon): 24.6 µM | TGI (SK-OV-3 ovarian): > 100 µM | TGI (HCT-15 colon): > 100 µM | TGI (PC-3 prostate): > 100 µM | TGI (A549 NSCLC): > 100 µM | TGI (LOX IMVI melanoma): 34.7 µM | TGI (HOP-62 NSCLC): > 100 µM | TGI (NCI-H23 lung): > 100 µM | TGI (ACHN renal): > 100 µM | TGI (MDA-MB-231 breast): > 100 µM | TGI (MDA-N): 53.5 µM | TGI (OVCAR-4 ovarian): > 100 µM | TGI (RPMI-8226 leukemia): 36.5 µM | TGI (SK-MEL-5 melanoma): 33.7 µM | TGI (NCI/ADR-RES ovarian): > 100 µM | TGI (HS 578T breast): > 100 µM | TGI (HL-60(TB) leukemia): 31.3 µM | TGI (HOP-92 NSCLC): 41.2 µM | TGI (SF-295 CNS): > 100 µM | TGI (OVCAR-3 ovarian): > 100 µM | TGI (CCRF-CEM leukemia): 31.6 µM | TGI (T-47D breast): 75.9 µM | TGI (SNB-75 CNS): 95.4 µM | TGI (TK-10 renal): > 100 µM | TGI (NCI-H522 lung): 56.4 µM | TGI (NCI-H460 lung): > 100 µM | TGI (SNB-19 CNS): > 100 µM | TGI (HCC-2998 colon): > 100 µM | TGI (HCT-116 colon): 76.9 µM | TGI (SN12C renal): > 100 µM | TGI (MDA-MB-435): 35.6 µM | TGI (K-562 leukemia): 41.6 µM | TGI (786-0 renal): > 100 µM | TGI (SK-MEL-2 melanoma): 40.1 µM | TGI (MCF7 breast): 42.5 µM | TGI (COLO 205 colon): 33.3 µM | TGI (A498 renal): 82.4 µM | TGI (M14 melanoma): > 100 µM | TGI (EKVX NSCLC): 60.9 µM | TGI (UACC-257 melanoma): 78.8 µM | TGI (DU-145 prostate): > 100 µM | TGI (NCI-H226 lung): 63.3 µM | TGI (OVCAR-8 ovarian): 88.9 µM

— PubChem BioAssay (NCI)
